Key:
5-LO [1] = target: T1, 5-LO (Rattus norvegicus, UniProt P12527); assay: test c) in vivo zymosan-induced liberation of LTB4 in rat air pouch; set-up: species or system male rats; settings: 3 h; test c), oral
T1 construct: within an air pouch generated within the subcutaneous tissue of the back of male rats; from tissue; host or cells: living male rats, cells of the zymosan-inflamed subcutaneous air pouch
T1 sequence (P12527 1-673): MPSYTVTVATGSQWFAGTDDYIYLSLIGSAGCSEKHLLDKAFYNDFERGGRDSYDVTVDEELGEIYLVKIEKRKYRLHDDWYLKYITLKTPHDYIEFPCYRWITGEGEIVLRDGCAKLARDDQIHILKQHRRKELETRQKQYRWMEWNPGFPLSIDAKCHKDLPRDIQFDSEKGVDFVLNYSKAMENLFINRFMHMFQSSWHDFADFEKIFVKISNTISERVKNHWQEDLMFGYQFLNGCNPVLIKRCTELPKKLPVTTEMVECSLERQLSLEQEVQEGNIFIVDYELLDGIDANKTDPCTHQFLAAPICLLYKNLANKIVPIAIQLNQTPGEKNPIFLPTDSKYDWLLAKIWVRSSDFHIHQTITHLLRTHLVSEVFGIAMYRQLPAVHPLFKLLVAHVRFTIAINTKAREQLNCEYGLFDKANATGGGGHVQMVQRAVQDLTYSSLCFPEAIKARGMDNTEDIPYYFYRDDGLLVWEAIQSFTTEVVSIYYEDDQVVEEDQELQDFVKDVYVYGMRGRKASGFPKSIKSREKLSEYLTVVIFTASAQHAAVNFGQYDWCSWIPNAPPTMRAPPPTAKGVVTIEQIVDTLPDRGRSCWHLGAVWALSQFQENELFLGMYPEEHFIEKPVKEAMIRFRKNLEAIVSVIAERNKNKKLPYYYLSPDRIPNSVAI
Procedure: c) An in vivo system involving measuring the effects of a test compound administered orally against the liberation of LTB4 induced by zymosan within an air pouch generated within the subcutaneous tissue of the back of male rats. The rats are anaesthetised and air pouches are formed by the injection of sterile air (20 ml). A further injection of air (10 ml) is similarly given after 3 days. At 6 days after the initial air injection the test compound is administered (usually orally as the suspension produced when a solution of the test compound in dimethylsulphoxide is added to hydroxypropylmethylcellulose), followed by the intrapouch injection of zymosan (1 ml of a 1% suspension in physiological saline). After 3 hours the rats are killed, the air pouches are lavaged with physiological saline, and the specific radioimmunoassay described above is used to assay LTB4 in the washings. This test provides an indication of inhibitory effects against 5-LO in an inflammatory milieu.

5-LO [2] = target: T2, 5-LO (Homo sapiens, UniProt P09917); assay: test a) in vitro assay, heparinised human blood challenged with calcium ionophore A23187, LTB4 radioimmunoassay; type: cell-based
T2 construct: incubating a test compound with heparinised human blood, prior to challenge with the calcium ionophore A23187; from tissue; host or cells: heparinised human blood (endogenous enzyme of the blood cells)
T2 sequence (P09917 1-674): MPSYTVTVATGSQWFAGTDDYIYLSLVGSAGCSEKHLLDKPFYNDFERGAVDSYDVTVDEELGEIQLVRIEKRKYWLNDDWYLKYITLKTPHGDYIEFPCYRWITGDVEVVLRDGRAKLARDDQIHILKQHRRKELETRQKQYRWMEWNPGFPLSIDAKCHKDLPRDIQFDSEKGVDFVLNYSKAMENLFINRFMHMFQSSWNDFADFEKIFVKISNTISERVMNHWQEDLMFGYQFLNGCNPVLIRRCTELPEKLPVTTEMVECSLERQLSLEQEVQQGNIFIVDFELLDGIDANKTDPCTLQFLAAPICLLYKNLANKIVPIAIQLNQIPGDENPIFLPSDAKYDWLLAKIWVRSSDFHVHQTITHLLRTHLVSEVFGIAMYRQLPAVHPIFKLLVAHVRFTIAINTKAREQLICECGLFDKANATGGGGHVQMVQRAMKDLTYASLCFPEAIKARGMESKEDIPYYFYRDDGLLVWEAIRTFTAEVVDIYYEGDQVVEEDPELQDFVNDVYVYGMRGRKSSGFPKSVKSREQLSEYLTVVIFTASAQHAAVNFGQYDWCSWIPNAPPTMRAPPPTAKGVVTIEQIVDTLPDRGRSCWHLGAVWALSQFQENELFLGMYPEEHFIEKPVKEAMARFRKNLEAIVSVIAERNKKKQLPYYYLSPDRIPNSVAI
Procedure: a) An in vitro assay system involving incubating a test compound with heparinised human blood, prior to challenge with the calcium ionophore A23187 and then indirectly measuring the inhibitory effects on 5-LO by assaying the amount of LTB4 using specific radioimmunoassays described by Carey and Forder (Prostaglandins, Leukotrienes Med., 1986, 22, 57; Prostaglandins, 1984, 28, 666; Brit. J. Pharmacol., 1985, 84, 34P) which involves the use of a protein-LTB4 conjugate produced using the procedure of Young et alia (Prostaglandins, 1983, 26(4), 605-613). The effects of a test compound on the enzyme cyclooxygenase (which is involved in the alternative metabolic pathway for arachidonic acid and gives rise to prostaglandins, thromboxanes and related metabolites) may be measured at the same time using the specific radioimmunoassay for thromboxane B2 (TxB2) described by Carey and Forder (see above). This test provides an indication of the effects of a test compound against 5-LO and also cyclooxygenase in the presence of blood cells and proteins. It permits the selectivity of the inhibitory effect on 5-LO or cyclooxygenase to be assessed.

Row | ED50 (5-LO [1]) [mg/kg] | IC50 (5-LO [2]) [nM] | SMILES
1 | ~0.5 | 30 | COC1(c2cc(F)cc(Sc3ccc(/C(C)=N/OCC#N)cc3)c2)CCOCC1 [Example 5, (E)-4'-[5-fluoro-3-(4-methoxytetrahydropyran-4-yl)phenylthio]acetophenone oxime O-cyanomethyl ether]
2 | ~0.05 | 40 | CO[C@]1(c2cc(F)cc(Sc3ccc(/C(C)=N/O)cc3)c2)CCO[C@@H](C)C1 [Example 26, (E)-4'-{5-fluoro-3-[(2S,4R)-4-methoxy-2-methyltetrahydropyran-4-yl]phenylthio}acetophenone oxime]
3 | ~0.5 | 110 | CO/N=C(\C)c1ccc(Sc2cc(F)cc(C3(OC)CCOCC3)c2)cc1 [Example 2, (E)-4'-[5-fluoro-3-(4-methoxytetrahydropyran-4-yl)phenylthio]acetophenone oxime O-methyl ether]

— US5332757A, “Oxime derivatives” (Zeneca Limited, priority 1992, dated 1994)
